This note sets out measurements from PubChem BioAssay AID1259411 (Chemical Carcinogenesis Research Information System (CCRIS), 2018).

The data set concerns rodent carcinogenicity bioassays, tumor incidence. Nature of the data set: CCRIS carcinogenicity studies. The method, boiled down:
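NCI-built, expert-reviewed records of carcinogenicity and related test outcomes (mutagenicity, tumor promotion/inhibition) compiled from published and report sources, historical span 1985-2011, not updated.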

Calls of active or inactive are those of the source. The rule behind the calls is not given here.

As to `CC(C)(C)c1cc(O)ccc1O`, the carcinogen call is “inactive; negative” (Species: MOUSE, Strain/Sex: B6C3F1/FEMALE, Route: ORAL, Dose: 0, 1250, 2500, 5000 PPM IN DIET FOR 105 WK (STUDY DURATION: 105 WK), Dose: 0, 1250, 2500, 5000 PPM IN DIET FOR 105 WK (STUDY DURATION: 105 WK)); “inactive; negative” (Species: MOUSE, Strain/Sex: B6C3F1/MALE, Route: ORAL, Dose: 0, 1250, 2500, 5000 PPM IN DIET FOR 104 WK (STUDY DURATION: 104 WK), Dose: 0, 1250, 2500, 5000 PPM IN DIET FOR 104 WK (STUDY DURATION: 104 WK)); “inactive; negative” (Species: RAT, Strain/Sex: F344/FEMALE, Route: ORAL, Dose: 0, 1250, 2500, 5000 PPM IN DIET FOR 129 WK ADMINISTERED TO RATS ALSO EXPOSED IN UTERO THROUGH MOTHERS THAT RECEIVED THE, Dose: 0, 1250, 2500, 5000 PPM IN DIET FOR 129 WK ADMINISTERED TO RATS ALSO EXPOSED IN UTERO THROUGH MOTHERS THAT RECEIVED THE); “inactive; negative” (Species: RAT, Strain/Sex: F344/FEMALE, Route: ORAL, Dose: 0, 5000 PPM IN DIET FOR 128 WK, CONTROL AND DOSED GROUPS FED AD LIBITUM (STUDY DURATION: 128 WK)); “inactive; negative” (Species: RAT, Strain/Sex: F344/FEMALE, Route: ORAL, Dose: 0, 5000 PPM IN DIET FOR 128 WK, CONTROL GROUP WAS WEIGHT-MATCHED TO DOSED GROUP (STUDY DURATION: 128 WK)); “inactive; negative” (Species: RAT, Strain/Sex: F344/FEMALE, Route: ORAL, Dose: 0, 5000 PPM IN DIET FOR 130 WK, CONTROL GROUP DIET RESTRICTED TO LIMIT WEIGHTS TO 85% OF AD LIBITUM-FED GROUPS (STUDY DU). Further, the carcinogen call was “inactive; negative” (Species: RAT, Strain/Sex: F344/MALE, Route: ORAL, Dose: 0, 1250, 2500, 5000 PPM IN DIET FOR 123 WK ADMINISTERED TO RATS ALSO EXPOSED IN UTERO THROUGH MOTHERS THAT RECEIVED THE, Dose: 0, 1250, 2500, 5000 PPM IN DIET FOR 123 WK ADMINISTERED TO RATS ALSO EXPOSED IN UTERO THROUGH MOTHERS THAT RECEIVED THE); “inactive; negative” (Species: RAT, Strain/Sex: F344/MALE, Route: ORAL, Dose: 0, 5000 PPM IN DIET FOR 102 WK, CONTROL AND DOSED GROUPS FED AD LIBITUM (STUDY DURATION; 122 WK), Dose: 0, 5000 PPM IN DIET FOR 102 WK, CONTROL AND DOSED GROUPS FED AD LIBITUM (STUDY DURATION; 122 WK)); “inactive; negative” (Species: RAT, Strain/Sex: F344/MALE, Route: ORAL, Dose: 0, 5000 PPM IN DIET FOR 122 WK, CONTROL GROUP WAS WEIGHT-MATCHED TO DOSED GROUP (STUDY DURATION: 122 WK)); “inactive; negative” (Species: RAT, Strain/Sex: F344/MALE, Route: ORAL, Dose: 0, 5000 PPM IN DIET FOR 130 WK, CONTROL GROUP DIET RESTRICTED TO LIMIT WEIGHTS TO 85% OF AD LIBITUM-FED GROUPS (STUDY DU).
In the case of `c1ccc2c(c1)ccc1nc3c(ccc4ccccc43)cc12`, the carcinogen call is “active; positive” (Species: MOUSE, Route: DERMAL, Tumor Site: Type of Lesion: INTEGUMENTARY SYSTEM (SKIN)); “active; positive” (Species: MOUSE, Route: SUBCUTANEOUS, Tumor Site: Type of Lesion: INJECTION SITE, LUNG); “active; positive” (Species: RAT, Strain/Sex: OSBORNE-MENDEL/FEMALE, Route: LUNG IMPLANT, Dose: 0, 0.1, 0.3, 1.0 MG IN BEESWAX/TRICAPRYLIN (STUDY DURATION: LIFETIME), Dose: 0, 0.1, 0.3, 1.0 MG IN BEESWAX/TRICAPRYLIN (STUDY DURATION: LIFETIME), Tumor Site: Type of Lesion: LUNG: EPIDERMOID CARCINOMA).
Turning to `CCCl`, the carcinogen call (Species: MOUSE, Strain/Sex: B6C3F1/FEMALE, Route: INHALATION, Dose: 0, 15000 PPM IN AIR 6 HR/D 5 D/WK FOR 100 WK (STUDY DURATION: 100 WK), Tumor Site: Type of Lesion: LIVER: HEPATOCELLULAR CARCINOMA, LIVER: HEPATOCELLULAR ADENOMA OR CARCINOMA, UTERUS: CARCINOMA, Tumor Site: Type of Lesion: LIVER: HEPATOCELLULAR CARCINOMA, LIVER: HEPATOCELLULAR ADENOMA OR CARCINOMA, UTERUS: CARCINOMA) is “active; positive”; the carcinogen call (Species: Mouse, Strain/Sex: B6C3F1/Female (50/Group), Route: Inhalation, Dose: 0, 15,000 ppm 6 hr/d, 5 d/wk for 100 wk, Tumor Site: Type of Lesion: Uterus: carcinoma (2% vs 90%, p<10-8), Uterus: lymphoma (2% vs 14%, p=0.03), Liver: adenoma and carcinoma (6% vs 17%, p=, Tumor Site: Type of Lesion: Uterus: carcinoma (2% vs 90%, p<10-8), Uterus: lymphoma (2% vs 14%, p=0.03), Liver: adenoma and carcinoma (6% vs 17%, p=) is “active; positive”; the carcinogen call (Species: Mouse, Strain/Sex: B6C3F1/Male (50/Group), Route: Inhalation, Dose: 0, 15,000 ppm 6 hr/d, 5 d/wk for 100 wk) is “inactive; negative”; the carcinogen call (Species: RAT, Strain/Sex: F344/FEMALE, Route: INHALATION, Dose: 0, 15000 PPM IN AIR 6 HR/D 5 D/WK FOR 102 WK (STUDY DURATION: 102 WK), Tumor Site: Type of Lesion: BRAIN: ASTROCYTOMA) is listed as “equivocal”; the carcinogen call (Species: RAT, Strain/Sex: F344/MALE, Route: INHALATION, Dose: 0, 15000 PPM IN AIR 6 HR/D 5 D/WK FOR 102 WK (STUDY DURATION: 102 WK), Tumor Site: Type of Lesion: SKIN: TRICHOEPITHELIOMA, SEBACEOUS GLAND ADENOMA OR BASAL CELL CARCINOMA) is reported as “equivocal”; the carcinogen call (Species: Rat, Strain/Sex: F344/Female (50/Group), Route: Inhalation, Dose: 0, 15,000 ppm 6 hr/d, 5 d/wk for 102 wk) was “inactive; negative”. Further, the carcinogen call (Species: Rat, Strain/Sex: F344/Male (50/Group), Route: Inhalation, Dose: 0, 15,000 ppm 6 hr/d, 5 d/wk for 102 wk) was “inactive; negative”.
With `O=C1c2ccccc2-c2ccc([N+](=O)[O-])c3cccc1c23`, under “Species: RAT, Strain/Sex: F344/FEMALE, Route: INTRATRACHEAL, Dose: 0, 1.5 MG TOTAL, 2.5 MG TOTAL OVER 18 MO (STUDY DURATION: 18 MO), Dose: 0, 1.5 MG TOTAL, 2.5 MG TOTAL OVER 18 MO (STUDY DURATION: 18 MO), Tumor Site: Type of Lesion: LUNG: CARCINOMA”, the carcinogen call is “active; positive (at higher dosage and longer duration)”.
Regarding `O=c1ccc(=O)[nH][nH]1`, the carcinogen call is, setting by setting: (Species: MOUSE, Strain/Sex: ICR/HA SWISS/FEMALE, Route: SUBCUTANEOUS, Dose: 0, 0.5 MG IN 0.1 ML WATER ON D 1 AND 7 OF AGE THEN 0, 1 MG IN 0.2 ML ON D 14 AND 21 FOR A TOTAL DOSE OF 0, 3 MG (STUDY D, Dose: 0, 0.5 MG IN 0.1 ML WATER ON D 1 AND 7 OF AGE THEN 0, 1 MG IN 0.2 ML ON D 14 AND 21 FOR A TOTAL DOSE OF 0, 3 MG (STUDY D) “inactive; negative”; (Species: MOUSE, Strain/Sex: ICR/HA SWISS/FEMALE, Route: SUBCUTANEOUS, Dose: 0, 5 MG IN 0.1 ML TRICAPRYLIN SUSPENSION ON D 1 OF AGE THEN 0, 10 MG IN 0.1 ML ON D 7, 0, 20 MG IN 0.2 ML ON D 14 AND 21, Dose: 0, 5 MG IN 0.1 ML TRICAPRYLIN SUSPENSION ON D 1 OF AGE THEN 0, 10 MG IN 0.1 ML ON D 7, 0, 20 MG IN 0.2 ML ON D 14 AND 21) “inactive; negative”; (Species: MOUSE, Strain/Sex: ICR/HA SWISS/MALE, Route: SUBCUTANEOUS, Dose: 0, 5 MG IN 0.1 ML TRICAPRYLIN SUSPENSION ON D 1 OF AGE THEN 0, 10 MG IN 0.1 ML ON D 7, 0, 20 MG IN 0.2 ML ON D 14 AND 21, Dose: 0, 5 MG IN 0.1 ML TRICAPRYLIN SUSPENSION ON D 1 OF AGE THEN 0, 10 MG IN 0.1 ML ON D 7, 0, 20 MG IN 0.2 ML ON D 14 AND 21, Tumor Site: Type of Lesion: LIVER: HEPATOMA) “active; positive”.
In the case of `CC(=O)CN(CC(C)O)N=O` (stereo unspecified), the carcinogen call runs as follows: (Species: RAT, Strain/Sex: F344/FEMALE, Route: INTRAVESICULAR, Dose: 0, 2.5 MG IN 0.2 ML ETHANOL:DEIONIZED WATER (1:3) 2/WK FOR 22 WK (TOTAL DOSE 0.7 MMOL) (STUDY DURATION: LIFESPAN), Tumor Site: Type of Lesion: BLADDER: TUMOR, LIVER: TUMOR) “active; positive”; (Species: RAT, Strain/Sex: F344/FEMALE, Route: ORAL, Dose: 0, 55, 220 MG/L DRINKING WATER 5 D/WK FOR 40, 21 WK (TOTAL DOSE 220; 460 MG) (STUDY DURATION: LIFESPAN), Dose: 0, 55, 220 MG/L DRINKING WATER 5 D/WK FOR 40, 21 WK (TOTAL DOSE 220; 460 MG) (STUDY DURATION: LIFESPAN), Tumor Site: Type of Lesion: LIVER: CARCINOMA, ANGIOSARCOMA, LUNG: TUMOR, ESOPHAGUS: CARCINOMA, PAPILLOMA, NASAL CAVITY: TUMOR, Tumor Site: Type of Lesion: LIVER: CARCINOMA, ANGIOSARCOMA, LUNG: TUMOR, ESOPHAGUS: CARCINOMA, PAPILLOMA, NASAL CAVITY: TUMOR) “active; positive”.
